In ChEMBL document CHEMBL2331517, “Songaricalarins A-E, cytotoxic oplopane sesquiterpenes from Ligularia songarica” (J Nat Prod, 2013):
Converted amounts (≈) assume the structure as drawn.

Assay: Cytotoxicity against human KBVIN cells
Assay type: functional, cell-based

**Q.** With COc1cc([C@@H]2c3cc4c(cc3[C@@H](O[C@@H]3O[C@@H]5CO[C@@H](C)O[C@H]5[C@H](O)[C@H]3O)[C@H]3COC(=O)[C@H]23)OCO4)cc(OC)c1O [ETOPOSIDE] as the compound, how does the EC50 read?
**A.** Its EC50 is 8.8 µg/mL (≈ 15 µM).
